Experimental data as given in ChEMBL document CHEMBL1129198, “Synthesis and antibacterial activity of lipophilic carbapenems with anti-MRSA activity” (Bioorg Med Chem Lett, 1996).
Converted amounts (≈) assume the structure as drawn.

Experiments:
Enterococcus faecium = test: Antibacterial activity against vancomycin-resistant Enterococcus faecium 628016.; type: functional
Enterococcus faecalis = test: Antibacterial activity against vancomycin-sensitive Enterococcus faecalis 683026.; type: functional
[1] = (§1) Compound was tested for its binding affinity against PBP2' receptor in Staphylococcus aureus.
[2] = In vitro binding affinity towards PBP2'' of Staphylococcus aureus using [14C]benzylpenicillin as radioligand
Staphylococcus aureus [3] = test: Compound was tested for its binding affinity against PBP2'' receptor in Staphylococcus aureus. Values taken from literature.; type: functional
Staphylococcus aureus [4] = test: Antibacterial activity against methicillin-resistant Staphylococcus aureus 601053.; type: functional
Staphylococcus aureus [5] = test: Antibacterial activity against methicillin-resistant Staphylococcus aureus 607004.; type: functional
Staphylococcus aureus [6] = test: Antibacterial activity against methicillin-sensitive Staphylococcus aureus 601055.; type: functional
Staphylococcus aureus [7] = test: Antibacterial activity against methicillin-sensitive Staphylococcus aureus 601055.(grown in the presence of blood); type: functional
Streptococcus pneumoniae = test: Antibacterial activity against penicillin-resistant Streptococcus pneumoniae 671319; type: functional
[8] = tested on: Staphylococcus haemolyticus; test: Antibacterial activity against methicillin-resistant Staphylococcus haemolyticus 601117; type: functional
Staphylococcus aureus [9] = test: as §1; type: functional, organism-based

Row | Compound | MIC (Enterococcus faecium) | MIC (Enterococcus faecalis) | IC50 [1] | IC50 [2] | IC50 (Staphylococcus aureus [3]) | MIC (Staphylococcus aureus [4]) | MIC (Staphylococcus aureus [5]) | MIC (Staphylococcus aureus [6]) | MIC (Staphylococcus aureus [7]) | MIC (Streptococcus pneumoniae) | MIC [8] | IC50 (Staphylococcus aureus [9])
1 | C[C@@H](O)[C@H]1C(=O)N2C(C(=O)O)=C(COc3ccc4cc(C(N)=O)ccc4c3)[C@H](C)[C@H]12 | 1 µg/mL (≈ 2.44 µM) | 2 µg/mL (≈ 4.87 µM) | > 16 µg/mL | > 16 µg/mL | 8 µg/mL (≈ 19.5 µM) | 0.25 µg/mL (≈ 0.609 µM) | 0.5 µg/mL (≈ 1.22 µM) | 0.008 µg/mL (≈ 0.0195 µM) | 0.016 µg/mL | 0.03 µg/mL (≈ 0.0731 µM) | 2 µg/mL (≈ 4.87 µM) | –
2 | C[C@@H](O)[C@H]1C(=O)N2C(C(=O)O)=C(SCCc3ccc4ccccc4c3)[C@H](C)[C@H]12 | 16 µg/mL (≈ 40.3 µM) | 8 µg/mL (≈ 20.1 µM) | – | – | – | 8 µg/mL (≈ 20.1 µM) | 32 µg/mL (≈ 80.5 µM) | 0.13 µg/mL (≈ 0.327 µM) | 0.13 µg/mL | 0.5 µg/mL (≈ 1.26 µM) | 128 µg/mL (≈ 322 µM) | –
3 | C[C@@H](O)[C@H]1C(=O)N2C(C(=O)O)=C(SCc3ccc4ccccc4c3)[C@H](C)[C@H]12 | 8 µg/mL (≈ 20.9 µM) | 2 µg/mL (≈ 5.22 µM) | – | 9.5 µg/mL (≈ 24.8 µM) | 2 µg/mL (≈ 5.22 µM) | 1 µg/mL (≈ 2.61 µM) | 1 µg/mL (≈ 2.61 µM) | 0.06 µg/mL (≈ 0.156 µM) | 0.03 µg/mL | 0.06 µg/mL (≈ 0.156 µM) | 2 µg/mL (≈ 5.22 µM) | 9.5 µg/mL (≈ 24.8 µM)
4 | C[C@@H](O)[C@H]1C(=O)N2C(C(=O)O)=C(COc3ccc4c(c3)CCC4)[C@H](C)[C@H]12 | 32 µg/mL (≈ 89.5 µM) | 64 µg/mL (≈ 179 µM) | – | – | – | 1 µg/mL (≈ 2.8 µM) | 16 µg/mL (≈ 44.8 µM) | 0.03 µg/mL (≈ 0.0839 µM) | 8 µg/mL | 1 µg/mL (≈ 2.8 µM) | 16 µg/mL (≈ 44.8 µM) | –
5 | C[C@@H](O)[C@H]1C(=O)N2C(C(=O)O)=C(SCCNC(=O)c3ccc4ccccc4c3)[C@H](C)[C@H]12 | 8 µg/mL (≈ 18.2 µM) | 4 µg/mL (≈ 9.08 µM) | – | – | – | 4 µg/mL (≈ 9.08 µM) | 64 µg/mL (≈ 145 µM) | 0.13 µg/mL (≈ 0.295 µM) | 0.13 µg/mL | 0.25 µg/mL (≈ 0.568 µM) | 256 µg/mL (≈ 581 µM) | –
6 | C[C@@H](O)[C@H]1C(=O)N2C(C(=O)O)=C(CSc3ccc4c(c3)CCC4=O)[C@H](C)[C@H]12 | 0.5 µg/mL (≈ 1.29 µM) | 1 µg/mL (≈ 2.58 µM) | – | – | – | 0.5 µg/mL (≈ 1.29 µM) | 2 µg/mL (≈ 5.16 µM) | 0.016 µg/mL (≈ 0.0413 µM) | 0.008 µg/mL | 0.03 µg/mL (≈ 0.0774 µM) | 2 µg/mL (≈ 5.16 µM) | –
7 | C[C@@H](O)[C@H]1C(=O)N2C(C(=O)[O-])=C(COc3ccc4nc(C[n+]5ccccc5)sc4c3)[C@H](C)[C@H]12 | 2 µg/mL (≈ 4.3 µM) | 0.5 µg/mL (≈ 1.07 µM) | – | – | – | 0.25 µg/mL (≈ 0.537 µM) | 4 µg/mL (≈ 8.59 µM) | 0.03 µg/mL (≈ 0.0644 µM) | 0.016 µg/mL | 0.06 µg/mL (≈ 0.129 µM) | 2 µg/mL (≈ 4.3 µM) | –
8 | C[C@@H](O)[C@H]1C(=O)N2C(C(=O)O)=C(Sc3ccc(C#N)c4ccccc34)[C@H](C)[C@H]12 | 2 µg/mL (≈ 5.07 µM) | 8 µg/mL (≈ 20.3 µM) | – | – | – | 0.5 µg/mL (≈ 1.27 µM) | 2 µg/mL (≈ 5.07 µM) | 0.016 µg/mL (≈ 0.0406 µM) | 0.016 µg/mL | 0.25 µg/mL (≈ 0.634 µM) | 1 µg/mL (≈ 2.54 µM) | –
9 | C[C@@H](O)[C@H]1C(=O)N2C(C(=O)O)=C(CNC(=O)c3ccc4ccccc4c3)[C@H](C)[C@H]12 | 32 µg/mL (≈ 81.1 µM) | 16 µg/mL (≈ 40.6 µM) | – | – | – | 8 µg/mL (≈ 20.3 µM) | 128 µg/mL (≈ 325 µM) | 0.5 µg/mL (≈ 1.27 µM) | 0.25 µg/mL | 4 µg/mL (≈ 10.1 µM) | 128 µg/mL (≈ 325 µM) | –
10 | C[C@@H](O)[C@H]1C(=O)N2C(C(=O)O)=C(COc3cccc4c3C/C(=C\c3cccs3)C4=O)[C@H](C)[C@H]12 | 4 µg/mL (≈ 8.59 µM) | 2 µg/mL (≈ 4.3 µM) | – | – | – | 0.25 µg/mL (≈ 0.537 µM) | 2 µg/mL (≈ 4.3 µM) | 0.008 µg/mL (≈ 0.0172 µM) | 0.008 µg/mL | 0.03 µg/mL (≈ 0.0644 µM) | 0.5 µg/mL (≈ 1.07 µM) | –
11 | C[C@@H](O)[C@H]1C(=O)N2C(C(=O)O)=C(CSc3ccc4c(c3)OCCC4=O)[C@H](C)[C@H]12 | 0.5 µg/mL (≈ 1.24 µM) | 1 µg/mL (≈ 2.48 µM) | – | – | – | 1 µg/mL (≈ 2.48 µM) | 1 µg/mL (≈ 2.48 µM) | 0.03 µg/mL (≈ 0.0744 µM) | 0.008 µg/mL | 0.03 µg/mL (≈ 0.0744 µM) | 1 µg/mL (≈ 2.48 µM) | –
12 | C[C@@H](O)[C@H]1C(=O)N2C(C(=O)O)=C(COc3cccc4c3CCCC4=O)[C@H](C)[C@H]12 | 2 µg/mL (≈ 5.19 µM) | 2 µg/mL (≈ 5.19 µM) | – | – | – | 0.25 µg/mL (≈ 0.649 µM) | 2 µg/mL (≈ 5.19 µM) | 0.016 µg/mL (≈ 0.0415 µM) | 0.008 µg/mL | 0.06 µg/mL (≈ 0.156 µM) | 4 µg/mL (≈ 10.4 µM) | –
